Measured values as given in patent publication US20190209501A1, “COMPOSITIONS AND METHODS OF USE OF BETA-HYDROXY-BETA-METHYLBUTYRATE (HMB) […] IN[…]” (Texas Tech University Office of Research Commercialization, priority 2018, published 2019).

Tests used:
[1] = Countermovement vertical jump (jump height); type: in vivo, human; conditions: for Jump Height ES (d): Cohen's d baseline vs week 8; for Jump Height Δ (%): change baseline to week 8 relative to baseline; for Jump Height Δ: week 8 minus baseline
Description: For the CMVJ tests, participants completed eight trials while wearing their own footwear. Approximately 30 seconds rest separated each trial. Ground reaction force (GRF) data were obtained during the CMVJ using two force platforms sampled at 1 kHz (OPT464508; Advanced Mechanical Technology, Inc., Watertown, Mass. USA). Participants stood motionless with each foot positioned on a force platform and their hands on their hips before initiating the CMVJ with a countermovement action using a self-selected depth and jumping with maximum effort to achieve the highest vertical displacement possible. No instructions were provided for the landing phase except to land with each foot contacting its respective force platform from take-off and to stop downward motion and return to a motionless standing position. The raw GRF data from the two force platforms were smoothed using a fourth order low pass Butterworth digital filter with a 30 Hz cutoff frequency. The smoothed GRF from the two force platforms was then summed along the vertical axis to obtain the vertical GRF acting at the body center of mass. The start of the CMVJ was defined as the time when bodyweight was reduced by 2.5% (29). Take-off was defined as the time when the summed vertical GRF decreased below a 20 N threshold (30). Jump time was then calculated as the time elapsed between the start of the CMVJ and take-off, expressed in units of seconds. Vertical jump height was calculated using the impulse-momentum relationship and expressed in units of meters.

[2] = Salivary cortisol awakening response; type: in vivo, human; design: Cortisol Awakening Response (AUC) / Cortisol Awakening Response (AUC) Δ: unit not given here; conditions: for Average Cortisol / Cortisol Awakening Response (AUC): mean ± SE; for Average Cortisol Δ / Average Cortisol Δ (%) / Cortisol Awakening Response (AUC) Δ / Cortisol Awakening Response (AUC) Δ (%): change baseline to W 8; for Average Cortisol ES (d) / Cortisol Awakening Response (AUC) ES (d): effect size
Description: At baseline and after 4 and 8 weeks of the intervention, participants completed two testing sessions: (1) a morning assessment conducted after an overnight fast for assessment of body composition, metabolism, vascular measures and subjective factors: and (2) an afternoon assessment of muscular performance, conducted in the non-fasted state. For morning assessments, participants reported to the laboratory after abstention from eating, drinking, exercising and utilizing caffeine or nicotine for ≥8 hours. Participants were interviewed to confirm adherence to these pre-assessment restrictions. The actual abstention from exercise was ≥14 hours due to the scheduling of exercise sessions. Participants reported to the laboratory wearing athletic clothing, and all metal and accessories were removed from the body prior to testing. Each participant voided her bladder and provided a urine sample. Urine samples were assessed for urine specific gravity (USG) using a digital refractometer (PA201X-093. Misco, Solon, Ohio. USA). Additionally, a standard urinary HCG test was performed to confirm that each participant was not pregnant. Finally, urinary samples were frozen at −80° C. for assessment of urinary HMB content after study unblinding. After voiding, each participant's body mass (BM) and height were determined via digital scale with stadiometer (Seca 769, Hamburg, Germany). Blood draws were performed at Texas Tech University Student Health Services after an overnight fast, and participants completed at-home saliva collections for assessment of the cortisol awakening response (CAR).
Each participant was familiarized with the saliva collection procedures at the baseline visit. Saliva collection took place using the passive drool method, with allows for saliva to be transferred from the mouth to a small vial according to manufacturer recommendations (36). Three saliva samples during the baseline period for assessment of the cortisol awakening response (CAR; the characteristic increase in cortisol concentrations upon waking (37)). These samples were collected at the participant's home 0, 30 and 45 minutes after waking. The importance of collecting the saliva sample exactly as instructed was strongly emphasized to research participants. Participants were provided with reminder signs to place by the bedside and were instructed to set alarms for saliva collection timepoints. Upon obtaining the sample, each participant was instructed to place the vial in the freezer until it could be transported to the laboratory. Upon delivery to the lab, each vial of saliva was stored at −80° C. until shipment to a saliva testing facility for analysis (Salimetrics LLC, Carlsbad, Calif., USA). For the analysis, samples were thawed to room temperature, vortexed, and then centrifuged for 15 minutes at approximately 3,000 RPM (1,500×g) immediately before performing the assay. Samples were tested for salivary cortisol using a high sensitivity enzyme immunoassay (Cat. No. 1-3002). Sample test volume was 25 μl of saliva per determination. The assay has a lower limit of sensitivity of 0.007 μg/dL, a standard curve range from 0.012-3.0 μg/dL, and an average intra-assay coefficient of variation of 4.60%, and an average inter-assay coefficient of variation 6.00%, which meets the manufacturers' criteria for accuracy and repeatability in Salivary Bioscience. and exceeds the applicable NIH guidelines for Enhancing Reproducibility through Rigor and Transparency.

Structure (SMILES): CC(C)(O)CC(=O)O [TRFHMB, β-hydroxy-β-methylbutyrate]
- Jump Height ES (d) ([1]; ITT analysis): 0.65
- Jump Height Δ (%) ([1]; ITT analysis): 29%
- Jump Height W 8 ([1]; ITT analysis, week 8, mean ± SE, method b87 expresses jump height in meters): 0.27 ± 0.03
- Jump Height Δ ([1]; ITT analysis): 0.06
- Jump Height ES (d) ([1]; PP analysis): 0.21
- Jump Height Δ (%) ([1]; PP analysis): 9%
- Jump Height Δ ([1]; PP analysis): 0.02
- Average Cortisol ([2]; ITT, Baseline): 0.40 ± 0.07 µg/dL
- Cortisol Awakening Response (AUC) ([2]; ITT, Baseline): 17.5 ± 3.2
- Average Cortisol ([2]; ITT, W 8): 0.39 ± 0.98 µg/dL
- Cortisol Awakening Response (AUC) ([2]; ITT, W 8): 16.9 ± 4.0
- Average Cortisol Δ ([2]; ITT): -0.01 µg/dL
- Average Cortisol Δ (%) ([2]; ITT): −3%
- Cortisol Awakening Response (AUC) Δ ([2]; ITT): −0.6
- Cortisol Awakening Response (AUC) Δ (%) ([2]; ITT): −3%
- Average Cortisol ES (d) ([2]; ITT): −0.04
- Cortisol Awakening Response (AUC) ES (d) ([2]; ITT): −0.05
- Average Cortisol ([2]; PP, Baseline): 0.34 ± 0.07 µg/dL
- Cortisol Awakening Response (AUC) ([2]; PP, Baseline): 14.0 ± 3.3
- Average Cortisol ([2]; PP, W 8): 0.42 ± 0.1 µg/dL
- Cortisol Awakening Response (AUC) ([2]; PP, W 8): 18.2 ± 4.7
- Average Cortisol Δ ([2]; PP): 0.1 µg/dL
- Average Cortisol Δ (%) ([2]; PP): 24%
- Cortisol Awakening Response (AUC) Δ ([2]; PP): 4.2
- Cortisol Awakening Response (AUC) Δ (%) ([2]; PP): 30%
- Average Cortisol ES (d) ([2]; PP): 0.93
- Cortisol Awakening Response (AUC) ES (d) ([2]; PP): 0.64
